pKi: −log10 of the molar value. Where two headings read alike, the source gives them in different places. One block for each molecule: values may come before it.
Legend:
clinical = details: human, in vivo; for AUC(0-inf): AUCinf
[1] = Safety: treatment-emergent adverse events in study CL-0537; assay type: in vivo, healthy subjects; details: for TEAE headache, subjects / TEAE nasopharyngitis, subjects: CL-0537; for number of TEAEs considered related to the study drug / subjects with TEAEs considered related to the study drug: investigator assessment
[2] = for CL/F lower in the presence of roxadustat: concomitant roxadustat vs statin alone; for increase of AUCinf / increase of Cmax: statin dosed concomitantly with roxadustat vs statin alone
[3] = Safety: treatment-emergent adverse events in study CL-0538; assay type: in vivo, healthy subjects; details: for TEAE dry mouth, subjects / TEAE headache, subjects: CL-0538; for number of TEAEs considered possibly related to the study drug / subjects with TEAEs considered possibly related to the study drug: investigator assessment
[4] = cited from earlier work
CYP2C8 = details: read-out: inhibition constant (Ki); in vitro; cited from earlier work
[5] = Safety and tolerability across the 3 studies; assay type: in vivo, healthy subjects; details: roxadustat 200 mg, observation periods of the 3 studies
[6] = for AUC(0-inf) / Cmax / half-life / Tmax / AUC(0-t): human, in vivo; for AUC(0-inf): AUCinf; for AUC(0-t): AUClast
[7] = Safety: treatment-emergent adverse events in study CL-0541; assay type: in vivo, healthy subjects
[8] = plasma
[9] = po, mean (SD), statin alone, single oral dose, plasma
[10] = statin + roxadustat 200 mg (steady state), concomitant, plasma
[11] = statin + roxadustat / statin alone
[12] = statin alone, single oral dose, plasma
[13] = GLS mean for statin alone, statin alone
[14] = po, median (min-max), statin alone, single oral dose, plasma
[15] = 40 mg, mean (SD), simvastatin 40 mg alone, plasma
[16] = mean (SD), simvastatin administered 2 hours before roxadustat, plasma
[17] = mean (SD), simvastatin administered 4 hours after roxadustat, plasma
[18] = mean (SD), simvastatin administered 10 hours after roxadustat, plasma
[19] = median (min-max), simvastatin administered 2 hours before roxadustat, plasma
[20] = median (min-max), simvastatin administered 4 hours after roxadustat, plasma
[21] = median (min-max), simvastatin administered 10 hours after roxadustat, plasma
[22] = simvastatin administered 2 hours before roxadustat
[23] = simvastatin administered 4 hours after roxadustat
[24] = simvastatin administered 10 hours after roxadustat
[25] = atorvastatin 40 mg + roxadustat 200 mg, concomitant

SMILES: CC(C)c1nc(N(C)S(C)(=O)=O)nc(-c2ccc(F)cc2)c1/C=C/[C@@H](O)C[C@@H](O)CC(=O)O [Rosuvastatin]
- AUC(0-inf) (clinical; GLS mean for roxadustat + statin): 184 ng·h/mL
- Cmax (clinical; GLS mean for statin alone): 4.65 ng/mL
- half-life (clinical; po, t1/2, mean (SD), statin alone, single oral dose, plasma): 15.5 h
- half-life (clinical; po, t1/2, median (min-max), statin alone, single oral dose, plasma): 15.2 h
- Tmax (clinical; [9]): 3.9 h
- TEAE headache, subjects [1]: 0.0%
- TEAE nasopharyngitis, subjects [1]: 0.0%
- number of TEAEs considered related to the study drug [1]: 2
- subjects with TEAEs considered related to the study drug [1]: 2 (7.1%) n (%)
- CL/F lower in the presence of roxadustat [2]: 66%
- AUCinf, GLS mean for statin alone ([2]; human, in vivo): 62 878 pg • h/mL
- AUCinf, mean (SD) ([2]; human, in vivo): 196 187 (95 367) pg • h/mL
- AUCinf, median (min-max) ([2]; human, in vivo): 177 873 (48 036–503 953) pg • h/mL
- AUClast, mean (SD) ([2]; human, in vivo): 192 156 (95 253) pg • h/mL
- AUClast, median (min-max) ([2]; human, in vivo): 173 565 (43 917–498 457) pg • h/mL
- Cmax, mean (SD) ([2]; human, in vivo): 22 980 (12 787) pg/mL
- Cmax, median (min-max) ([2]; human, in vivo): 19 811 (4059–58 463) pg/mL
- tlag, mean (SD) ([2]; human, in vivo): 0 (0.0) h
- tlag, median (min-max) ([2]; human, in vivo): 0 (0–0) h
- AUCinf, mean (SD) ([2]; human, in vivo, po): 67 613 (33 727) pg • h/mL
- AUCinf, median (min-max) ([2]; human, in vivo, po): 57 187 (21 336–165 242) pg • h/mL
- AUClast, mean (SD) ([2]; human, in vivo, po): 61 459 (34 796) pg • h/mL
- AUClast, median (min-max) ([2]; human, in vivo, po): 54 017 (0–159 223) pg • h/mL
- Cmax, mean (SD) ([2]; human, in vivo, po): 4939 (2991) pg/mL
- Cmax, median (min-max) ([2]; human, in vivo, po): 4062 (0–13 775) pg/mL
- tlag, mean (SD) ([2]; human, in vivo, po): 0 (0.0) h
- tlag, median (min-max) ([2]; human, in vivo, po): 0 (0–0) h
- CL/F, mean (SD) [2, 10]: 63.4 (35.8) L/h
- CL/F, median (min-max) [2, 10]: 56.22 (19.8–208) L/h
- AUCinf, GLS mean ratio (%) [2, 11]: 292.55%
- Cmax, GLS mean ratio (%) [2, 11]: 447.33%
- CL/F, mean (SD) [2, 12]: 185.3 (91.3) L/h
- CL/F, median (min-max) [2, 12]: 174.9 (60.5–469) L/h
- tmax, median (min-max) [2, 12]: 4.00 (3.00–6.02) h
- increase of AUCinf [2]: 2.93 fold
- increase of Cmax [2]: 4.47 fold

SMILES: Cc1nc(C(=O)NCC(=O)O)c(O)c2ccc(Oc3ccccc3)cc12 [Roxadustat]
- TEAE dry mouth, subjects [3]: 8.3%
- TEAE headache, subjects [3]: 4.2%
- number of TEAEs considered possibly related to the study drug [3]: 3
- subjects with TEAEs considered possibly related to the study drug [3]: 2 (8.3%) n (%)
- terminal elimination half-life (t1/2) ([4]; after single-dose oral administration, healthy subjects): ≈ 12 hours
- time to maximum plasma concentrations (Cmax) after dosing ([4]; fasted state): ≤ 2 h
- time to reach maximum plasma concentration (Cmax) ([4]; oral, healthy subjects): ≤ 2 h
- TEAE headache, subjects [1]: 7.1%
- TEAE nasopharyngitis, subjects [1]: 0.0%
- number of TEAEs considered related to the study drug [1]: 4
- subjects with TEAEs considered related to the study drug [1]: 4 (14.3%) n (%)
- pKi (CYP2C8): 4.80
- deaths, serious TEAEs, AEs leading to discontinuation [5]: did not result in any deaths, serious TEAEs, or AEs leading to discontinuation of study drug

- AUC(0-inf) (clinical; [13]): 24.6 ng·h/mL
- Cmax (clinical; [13]): 1.86 ng/mL
- Cmax (clinical; [9]): 2.17 ng/mL
- Cmax (clinical; [14]): 2.06 ng/mL
- half-life (clinical; po, t1/2, mean (SD)): 6.28 h
- half-life (clinical; po, t1/2, median (min-max)): 5.78 h
- Tmax (clinical; [9]): 5.7 h
- Tmax (clinical; [14]): 4.02 h
- half-life (clinical; t1/2, mean (SD)): 5.98 h
- half-life (clinical; t1/2, median (min-max)): 5.27 h
- tlag, mean (SD) [2, 10]: 0.29 (0.35) h
- tlag, median (min-max) [2, 10]: 0 (0–1.02) h
- tlag, mean (SD) [2, 12]: 0.47 (0.31) h
- tlag, median (min-max) [2, 12]: 0.50 (0–1.00) h
- increase of AUCinf [2]: 1.85 fold
- increase of Cmax [2]: 2.76 fold
- AUC(0-inf) [6, 15]: 24.3 ng·h/mL
- AUC(0-inf) ([6]; 40 mg, median (min-max), simvastatin 40 mg alone, plasma): 21.2 ng·h/mL
- Cmax [6, 15]: 2.12 ng/mL
- half-life ([6]; 40 mg, t1/2, mean (SD), simvastatin 40 mg alone, plasma): 7 h
- half-life ([6]; 40 mg, t1/2, median (min-max), simvastatin 40 mg alone, plasma): 6.36 h
- Tmax [6, 15]: 5.38 h
- AUC(0-inf) ([6]; GLS mean for simvastatin alone, simvastatin alone): 21 ng·h/mL
- AUC(0-inf) [6, 16]: 48.7 ng·h/mL
- AUC(0-inf) [6, 17]: 84.7 ng·h/mL
- AUC(0-inf) [6, 18]: 59.4 ng·h/mL
- AUC(0-inf) [6, 19]: 41 ng·h/mL
- AUC(0-inf) [6, 20]: 70.3 ng·h/mL
- AUC(0-inf) [6, 21]: 50.5 ng·h/mL
- AUC(0-t) [6, 16]: 44.7 ng·h/mL
- AUC(0-t) [6, 17]: 82.8 ng·h/mL
- AUC(0-t) [6, 18]: 57.4 ng·h/mL
- AUC(0-t) [6, 19]: 38.2 ng·h/mL
- AUC(0-t) [6, 20]: 68.9 ng·h/mL
- AUC(0-t) [6, 21]: 49.8 ng·h/mL
- Cmax [6, 16]: 4.99 ng/mL
- Cmax [6, 17]: 12.8 ng/mL
- Cmax [6, 18]: 7.13 ng/mL
- Cmax [6, 19]: 4.5 ng/mL
- Cmax [6, 20]: 11.6 ng/mL
- Cmax [6, 21]: 6.1 ng/mL
- half-life ([6]; t1/2, mean (SD), simvastatin administered 2 hours before roxadustat, plasma): 4.6 h
- half-life ([6]; t1/2, mean (SD), simvastatin administered 4 hours after roxadustat, plasma): 3.75 h
- half-life ([6]; t1/2, mean (SD), simvastatin administered 10 hours after roxadustat, plasma): 4.16 h
- half-life ([6]; t1/2, median (min-max), simvastatin administered 2 hours before roxadustat, plasma): 4.27 h
- half-life ([6]; t1/2, median (min-max), simvastatin administered 4 hours after roxadustat, plasma): 3.45 h
- Tmax [6, 16]: 5.55 h
- Tmax [6, 17]: 4.01 h
- Tmax [6, 18]: 4.4 h
- Tmax [6, 19]: 6 h
- Tmax [6, 21]: 4.01 h
- AUClast, mean (SD) ([6]; simvastatin 40 mg alone, plasma): 22.17 (11.98) ng • h/mL
- tmax, median (min-max) ([6]; simvastatin administered 4 hours after roxadustat, plasma): 4.00 (2.02–6.00) h
SMILES: CCC(C)(C)C(=O)O[C@H]1C[C@@H](C)C=C2C=C[C@H](C)[C@H](CC[C@@H](O)C[C@@H](O)CC(=O)O)[C@H]21 [Simvastatin acid]

SMILES: CCC(C)(C)C(=O)O[C@H]1C[C@@H](C)C=C2C=C[C@H](C)[C@H](CC[C@@H]3C[C@@H](O)CC(=O)O3)[C@H]21 [Simvastatin]
- TEAE headache, subjects [1]: 0.0%
- TEAE nasopharyngitis, subjects [1]: 0.0%
- CL/F lower in the presence of roxadustat [2]: 40%
- increase of Cmax [2]: 1.87 fold
- TEAE headache, subjects [7, 22]: 16.7%
- TEAE incidence: Overall [7, 22]: 9 (37.5%) n (%)
- total number of TEAEs [7, 22]: 12
- TEAE headache, subjects [7, 23]: 4.2%
- TEAE incidence: Overall [7, 23]: 6 (25.0%) n (%)
- number of TEAEs of dizziness possibly related to the study drug [7, 23]: 1
- subjects with TEAE of dizziness possibly related to the study drug [7, 23]: 1 (4.2%) n (%)
- total number of TEAEs [7, 23]: 8
- TEAE headache, subjects [7, 24]: 8.3%
- TEAE incidence: Overall [7, 24]: 4 (16.7%) n (%)
- number of TEAEs of dizziness possibly related to the study drug [7, 24]: 2
- subjects with TEAE of dizziness possibly related to the study drug [7, 24]: 1 (4.2%) n (%)
- total number of TEAEs [7, 24]: 9
- TEAE headache, subjects ([7]; simvastatin administered alone): 8.3%
- TEAE incidence: Overall ([7]; simvastatin alone): 5 (20.8%) n (%)
- total number of TEAEs ([7]; simvastatin alone): 6
- lower mean CL/F ([6]; simvastatin 2 hours before roxadustat): 42%
- lower mean CL/F ([6]; simvastatin 4 hours after roxadustat): 51%
- lower mean CL/F ([6]; simvastatin 10 hours after roxadustat): 46%

SMILES: CC(C)c1c(C(=O)Nc2ccccc2)c(-c2ccccc2)c(-c2ccc(F)cc2)n1CC[C@@H](O)C[C@@H](O)CC(=O)O [Atorvastatin]
- TEAE dry mouth, subjects [3]: 0.0%
- TEAE headache, subjects [3]: 4.2%
- number of TEAEs considered possibly related to the study drug [3]: 2
- subjects with TEAEs considered possibly related to the study drug [3]: 2 (8.3%) n (%)
- tlag, mean (SD) [8, 25]: 0 (0.0) h
- tlag, median (min-max) [8, 25]: 0 (0–0) h
- tlag, mean (SD) ([8]; atorvastatin 40 mg alone): 0 (0.0) h
- tlag, median (min-max) ([8]; atorvastatin 40 mg alone): 0 (0–0) h
